Common to all, as to assay type: cell-based, human
Data set [1] deals with NTD1 testicular cancer cells. In words: Cytotoxic activity of oxovanadium(IV) compounds, NTD1. To be noted: read-out: Cytotoxic Activity NTD1. The procedure, abridged:
(§1)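 Exponentially growing cells seeded at 4×10^4 cells/well were exposed to compounds at 0.1–250 μM for 48 hours at 37° C, in triplicate. MTT viability was read at 540/690 nm, converted to live cell number via per-line standard curves, and expressed as % survival versus control. IC50 came from non-linear regression.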

Data set [2] relates to PC3 prostate cancer cells. In words: Cytotoxic activity of oxovanadium(IV) compounds, PC3. To be noted: read-out: Cytotoxic Activity PC3. The procedure, abridged:
as §1

The subject of data set [3] is NALM-6 leukemia cells. Nature of the data set: Mitochondrial transmembrane potential, JC-1 staining, flow cytometry. On the procedure:
To measure the changes in mitochondria, NALM-6 cells were incubated with compound 29 at concentrations ranging from 0.1 μM to 1 μM for 24 hr, 48 hr, 72 hr or 96 hr, stained with specific fluorescent dyes and analyzed with flow cytometer. Mitochondrial membrane potential (ΔΨm) was measured using two dyes including a lipophollic cation 5,5′,6,6′-tetrachloro-1,1′,3,3′-tetraethlybenzimidazolylcarbocyanine iodide (JC-1; Molecular probes, Eugene, Oreg.) and a cyanine dye, 1,1′,3,3,3′,3′-hexamethylindodicarbocyanine iodide [DiIC1(5); Molecular probes] as earlier described (22). JC-1 can enter the cells, and selectively mitochondria, and has been used to assess ΔΨm in a variety of studies (23,24). JC-1 is a monomer at 527 nm after being excited at 490 nm; with polarization of ΔΨm, J-aggregates are formed that shift emission to 590 nm (23, 24). This can be detected on a flow cytometer by assessing the green signal (at 527 nm) and green-orange signal (at 590 nm) simultaneously, creating an index of the number of cells polarized and depolarized mitochondria. The treated and control cells were washed and plated in a 6-well plate at 1×10^6 cells in fresh medium. JC-1 was added at a concentration of 10 μg/ml, and cells were incubated for 10 min in the dark at room temp. Cells were then washed twice with ice-cold PBS and immediately analyzed using Becton Dickinson (San Jose, Calif.) Calibur flow cytometer. At least 2×10^3 cells were analyzed to determine the percentage of cells with polarized and depolarized mitochondria. DiIC1(5), a cyanine dye is amphioatheic and cationic that concentrate in energized mitochondria and has been used in a variety of studies to measure the mitochondrial membrane potential (25–27). NALM-6 cells were stained with DiIC1(5) at 40 nM concentration for 30 min in the dark as described for JC-1. The cells were analyzed using Vantage Becton Dickinson cell sorter equipped with HeNe laser with excitation at 635 nm and the fluorescence was collected at 666 nm.
On the technique in general: In flow cytometry, cells or beads pass a laser one at a time.

Read-outs that look alike come from different tables or passages of the source.

With “bis(4,7-dimethyl-1,10-phenanthroline)sulfatooxovanadium(IV) [Compound 29]”, the IC50 in data set [1] is 10.8 µM; in data set [2], 1700 nM. The “fraction of JC-1 red/orange fluorescence-positive cells, 48 hr” value in data set [3] (500 nM, 48 hr (vehicle 98.6%)) was determined as 56.1%. For the same substance, in data set [3] (500 nM, 72 hr (vehicle 98.6%)), the “fraction of JC-1 red/orange fluorescence-positive cells, 72 hr” value is reported as 8.4%. Further, the EC50 amounted to 4200 nM in data set [3] (24 hr treatment, read-out: average EC50 for depolarization of mitochondria (JC-1 red/orange fluorescence), 24 hr) and 500 nM in data set [3] (48 hr treatment, read-out: average EC50 for depolarization of mitochondria (JC-1 red/orange fluorescence), 48 hr).

The record behind these values is US7091351B2, “Vanadium compounds for treating cancer” (Parker Hughes Institute, priority 1998, dated 2006).
